Source: PubChem BioAssay (NCI)
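Assay format: 96-well plates, 48-hour exposure. The concentration for 50% growth inhibition is given as GI50. TGI: concentration producing complete growth inhibition.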

Experiments:
Experiment in all cases: inhibition of tumour cell growth, NCI panel, 48 h
[1] = test system: BT-549 breast
[2] = test system: CCRF-CEM leukemia
[3] = test system: 786-0 renal
[4] = test system: HT29 colon
[5] = test system: SR leukemia
[6] = test system: SK-MEL-5 melanoma
[7] = test system: EKVX NSCLC
[8] = test system: SF-539 CNS
[9] = test system: RPMI-8226 leukemia
[10] = test system: ACHN renal
[11] = test system: CAKI-1 renal
[12] = test system: A549 NSCLC
[13] = test system: RXF 393 renal
[14] = test system: KM12 colon
[15] = test system: NCI-H522 lung
[16] = test system: OVCAR-4 ovarian
[17] = test system: NCI/ADR-RES ovarian
[18] = test system: HL-60(TB) leukemia
[19] = test system: SNB-19 CNS
[20] = test system: U251 CNS
[21] = test system: NCI-H226 lung
[22] = test system: PC-3 prostate
[23] = test system: UACC-257 melanoma
[24] = test system: HOP-62 NSCLC
[25] = test system: HCC-2998 colon
[26] = test system: UACC-62 melanoma
[27] = test system: MALME-3M melanoma
[28] = test system: SNB-75 CNS
[29] = test system: HCT-116 colon
[30] = test system: SW-620 colon
[31] = test system: SN12C renal
[32] = test system: SK-MEL-28 melanoma
[33] = test system: T-47D breast
[34] = test system: IGROV1 ovarian
[35] = test system: LOX IMVI melanoma
[36] = test system: TK-10 renal
[37] = test system: OVCAR-8 ovarian
[38] = test system: DU-145 prostate
[39] = test system: SF-295 CNS
[40] = test system: MDA-MB-231 breast
[41] = test system: UO-31 renal
[42] = test system: HS 578T breast
[43] = test system: NCI-H23 lung
[44] = test system: MDA-MB-435
[45] = test system: MOLT-4 leukemia
[46] = test system: OVCAR-3 ovarian
[47] = test system: OVCAR-5 ovarian
[48] = test system: HOP-92 NSCLC
[49] = test system: M14 melanoma
[50] = test system: NCI-H460 lung
[51] = test system: COLO 205 colon
[52] = test system: HCT-15 colon
[53] = test system: SF-268 CNS
[54] = test system: SK-MEL-2 melanoma
[55] = test system: K-562 leukemia
[56] = test system: SK-OV-3 ovarian
[57] = test system: MCF7 breast
[58] = test system: A498 renal

Compound: CCOC(=O)c1ccc2c(c1)[n+](=O)c(C(=O)C1CCCS1)c(C(F)(F)F)n2[O-] (stereo unspecified)
- GI50 [1]: 327 nM
- TGI [1]: 1080 nM
- GI50 [2]: 233 nM
- TGI [2]: 550 nM
- GI50 [3]: 406 nM
- TGI [3]: 1460 nM
- GI50 [4]: 172 nM
- TGI [4]: 320 nM
- GI50 [5]: 208 nM
- TGI [5]: 428 nM
- GI50 [6]: 964 nM
- TGI [6]: 2310 nM
- GI50 [7]: 1190 nM
- TGI [7]: 2610 nM
- GI50 [8]: 722 nM
- TGI [8]: 2040 nM
- GI50 [9]: 702 nM
- TGI [9]: 2080 nM
- GI50 [10]: 172 nM
- TGI [10]: 315 nM
- GI50 [11]: 189 nM
- TGI [11]: 429 nM
- GI50 [12]: 274 nM
- TGI [12]: 764 nM
- GI50 [13]: 603 nM
- TGI [13]: 1860 nM
- GI50 [14]: 389 nM
- TGI [14]: 975 nM
- GI50 [15]: 187 nM
- TGI [15]: 443 nM
- GI50 [16]: 220 nM
- TGI [16]: 534 nM
- GI50 [17]: 271 nM
- TGI [17]: 797 nM
- GI50 [18]: 258 nM
- TGI [18]: 643 nM
- GI50 [19]: 1250 nM
- TGI [19]: 2570 nM
- GI50 [20]: 169 nM
- TGI [20]: 315 nM
- GI50 [21]: 835 nM
- TGI [21]: 2650 nM
- GI50 [22]: 248 nM
- TGI [22]: 716 nM
- GI50 [23]: 474 nM
- TGI [23]: 1600 nM
- GI50 [24]: 350 nM
- TGI [24]: 820 nM
- GI50 [25]: 675 nM
- TGI [25]: 2000 nM
- GI50 [26]: 1150 nM
- TGI [26]: 2450 nM
- GI50 [27]: 581 nM
- TGI [27]: 1980 nM
- GI50 [28]: 1130 nM
- TGI [28]: 2330 nM
- GI50 [29]: 173 nM
- TGI [29]: 340 nM
- GI50 [30]: 202 nM
- TGI [30]: 490 nM
- GI50 [31]: 448 nM
- TGI [31]: 1810 nM
- GI50 [32]: 1630 nM
- TGI [32]: 3010 nM
- GI50 [33]: 493 nM
- TGI [33]: 1920 nM
- GI50 [34]: 198 nM
- TGI [34]: 417 nM
- GI50 [35]: 161 nM
- TGI [35]: 308 nM
- GI50 [36]: 288 nM
- TGI [36]: 765 nM
- GI50 [37]: 239 nM
- TGI [37]: 597 nM
- GI50 [38]: 428 nM
- TGI [38]: 1050 nM
- GI50 [39]: 749 nM
- TGI [39]: 2070 nM
- GI50 [40]: 490 nM
- TGI [40]: 1780 nM
- GI50 [41]: 156 nM
- TGI [41]: 303 nM
- GI50 [42]: 2120 nM
- TGI [42]: 6350 nM
- GI50 [43]: 830 nM
- TGI [43]: 2200 nM
- GI50 [44]: 330 nM
- TGI [44]: 987 nM
- GI50 [45]: 237 nM
- TGI [45]: 519 nM
- GI50 [46]: 275 nM
- TGI [46]: 713 nM
- GI50 [47]: 1420 nM
- TGI [47]: 2760 nM
- GI50 [48]: 208 nM
- TGI [48]: 1170 nM
- GI50 [49]: 388 nM
- TGI [49]: 1120 nM
- GI50 [50]: 236 nM
- TGI [50]: 588 nM
- GI50 [51]: 217 nM
- TGI [51]: 459 nM
- GI50 [52]: 264 nM
- TGI [52]: 824 nM
- GI50 [53]: 197 nM
- TGI [53]: 458 nM
- GI50 [54]: 1600 nM
- TGI [54]: 3160 nM
- GI50 [55]: 197 nM
- TGI [55]: 437 nM
- GI50 [56]: 1370 nM
- TGI [56]: 2670 nM
- GI50 [57]: 261 nM
- TGI [57]: 738 nM
- GI50 [58]: 1550 nM
- TGI [58]: 3070 nM
